Measured values from ChEMBL document CHEMBL1140113, “Structural requirements for drug inhibition of the liver specific human organic cation transport protein 1” (J Med Chem, 2008).

target: T1, OCT1 (SLC22A1) (Homo sapiens, UniProt O15245); assay: in vitro; details: HEK293 cells that express human OCT1, probe 4-(4-(dimethylamino)styryl)-N-methylpyridinium
T1 sequence (O15245 whole entry): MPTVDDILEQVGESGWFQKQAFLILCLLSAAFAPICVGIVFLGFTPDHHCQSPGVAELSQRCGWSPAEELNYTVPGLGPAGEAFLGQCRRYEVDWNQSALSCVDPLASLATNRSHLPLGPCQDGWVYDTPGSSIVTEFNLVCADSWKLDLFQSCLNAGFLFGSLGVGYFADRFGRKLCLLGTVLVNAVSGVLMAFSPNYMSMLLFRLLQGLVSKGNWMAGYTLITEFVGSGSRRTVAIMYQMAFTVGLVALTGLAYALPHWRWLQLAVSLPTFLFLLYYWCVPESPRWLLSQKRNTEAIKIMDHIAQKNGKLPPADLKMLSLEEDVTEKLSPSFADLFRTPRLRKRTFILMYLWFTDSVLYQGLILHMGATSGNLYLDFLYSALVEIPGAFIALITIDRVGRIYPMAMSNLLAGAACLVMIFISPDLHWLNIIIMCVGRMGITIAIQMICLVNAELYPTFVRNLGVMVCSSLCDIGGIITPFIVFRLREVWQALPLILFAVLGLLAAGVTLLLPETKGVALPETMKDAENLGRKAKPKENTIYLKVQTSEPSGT

Point of comparison: `N=C(N)c1ccc(CNC(=O)[C@@H]2CCN2C(=O)[C@H](NCC(=O)O)C2CCCCC2)cc1`, inhibition at 100 µM -0.2%. Against it:
- CCOc1nc2cccc(C(=O)O)c2n1Cc1ccc(-c2ccccc2-c2nnn[nH]2)cc1 — higher, 6.3%
- CC1=C(CC(=O)O)c2cc(F)ccc2/C1=C\c1ccc([S+](C)[O-])cc1 (stereo unspecified) — higher, 27.1%
- CC(C)NC[C@H](O)c1ccc(O)c(O)c1 — higher, 15.6%
- CC(C)[N+]1(C)[C@@H]2CC[C@H]1C[C@@H](OC(=O)C(CO)c1ccccc1)C2 (stereo partly specified) — higher, 43.4%
- CC(C)(C)NC(=O)[C@@H]1CN(Cc2cccnc2)CCN1C[C@@H](O)C[C@@H](Cc1ccccc1)C(=O)N[C@H]1c2ccccc2C[C@H]1O — higher, 43%
- CCOC(=O)[C@H](CCc1ccccc1)N[C@@H](C)C(=O)N1CCC[C@H]1C(=O)O — higher, 14.6%
- COc1ccc(CCN(C)CCCC(C#N)(c2ccc(OC)c(OC)c2)C(C)C)cc1OC (stereo unspecified) — higher, 86.4%
- COc1ccc(CCN(C)CCCC(C#N)(c2cc(OC)c(OC)c(OC)c2)C(C)C)cc1OC (racemic) [METHOXYVERAPAMIL] — higher, 78.1%
- COc1cc(C(O)CN)ccc1O (racemic) [NORMETANEPHRINE] — lower, -2.4%
- COc1cc2c(cc1O)CC[C@@H]1[C@@H]2CC[C@]2(C)[C@@H](O)CC[C@@H]12 [2-METHOXYESTRADIOL] — higher, 74.3%
- C[C@H]1O[C@H](O[C@H]2[C@H](O)[C@@H](O)[C@@H](O[C@H]3[C@H](O)[C@@H](O)C(O)O[C@@H]3CO)O[C@@H]2CO)[C@H](O)[C@@H](O)[C@@H]1N[C@H]1C=C(CO)[C@@H](O)[C@H](O)[C@H]1O (stereo partly specified) [ACARBOSE] — higher, 3.9%
- CCCC(=O)Nc1ccc(OCC(O)CNC(C)C)c(C(C)=O)c1 (stereo unspecified) [ACEBUTOLOL] — higher, 40.9%
- CCN(CC)CCNC(=O)c1ccc(NC(C)=O)cc1 [ACECAINIDE] — higher, 13.7%
- CC(=O)Nc1ccc(O)cc1 [ACETAMINOPHEN] — lower, -9.2%
- CC(=O)N[C@@H](CS)C(=O)O [ACETYLCYSTEINE] — higher, 15.5%
- Nc1nc2c(ncn2COCCO)c(=O)[nH]1 [ACYCLOVIR] — lower, -3.9%
- N=C(N)NCCCCN [AGMATINE] — higher, 2.1%
- Oc1ncnc2[nH]ncc12 [ALLOPURINOL] — higher, 7.7%
- CC1(C)S[C@@H]2[C@H](NC(=O)[C@H](N)c3ccccc3)C(=O)N2[C@H]1C(=O)O [AMPICILLIN] — higher, 20.3%
- C[C@]12CCC(=O)C=C1CC[C@@H]1[C@@H]2CC[C@]2(C)C(=O)CC[C@@H]12 [ANDROSTENEDIONE] — higher, 65.1%
- Cc1cc(=O)n(-c2ccccc2)n1C [ANTIPYRINE] — higher, 20.7%
- NC(N)=NCCCCN=C(N)N [ARCAINE] — higher, 4.5%
- CC(=O)Oc1ccccc1C(=O)O [ASPIRIN] — lower, -5.7%
- CN1[C@@H]2CC[C@H]1C[C@@H](OC(=O)C(CO)c1ccccc1)C2 (stereo partly specified) [ATROPINE] — higher, 76.5%
- NCC(CC(=O)O)c1ccc(Cl)cc1 (stereo unspecified) [BACLOFEN] — higher, 20.7%
- CCCC1O[C@@H]2C[C@H]3[C@@H]4CCC5=CC(=O)C=C[C@]5(C)[C@H]4[C@@H](O)C[C@]3(C)[C@]2(C(=O)CO)O1 (stereo partly specified) [BUDESONIDE] — higher, 38.2%
- O=C1CC2(CCCC2)CC(=O)N1CCCCN1CCN(c2ncccn2)CC1 [BUSPIRONE] — higher, 24.7%
- Cn1c(=O)c2c(ncn2C)n(C)c1=O [CAFFEINE] — lower, -1.4%
- C[C@H](CS)C(=O)N1CCC[C@H]1C(=O)O [CAPTOPRIL] — higher, 0.3%
- NC(=O)N1c2ccccc2C=Cc2ccccc21 [CARBAMAZEPINE] — higher, 8.4%
- CCCC(C)(COC(N)=O)COC(=O)NC(C)C (stereo unspecified) [CARISOPRODOL] — higher, 19.8%
- Cc1ccc(-c2cc(C(F)(F)F)nn2-c2ccc(S(N)(=O)=O)cc2)cc1 [CELECOXIB] — higher, 7.7%
- CC1=C(C(=O)O)N2C(=O)[C@@H](NC(=O)[C@H](N)c3ccccc3)[C@H]2SC1 [CEPHALEXIN ANHYDROUS] — lower, -1.9%
- O=C(O)COCCN1CCN(C(c2ccccc2)c2ccc(Cl)cc2)CC1 (stereo unspecified) [CETIRIZINE] — lower, -4.8%
- O=C(N[C@H](CO)[C@H](O)c1ccc([N+](=O)[O-])cc1)C(Cl)Cl [CHLORAMPHENICOL] — higher, 1.4%
- CCN(CC)CCCC(C)Nc1ccnc2cc(Cl)ccc12 (stereo unspecified) [CHLOROQUINE] — higher, 46%
- CCC[C@@H]1C[C@@H](C(=O)N[C@@H]([C@H]2O[C@H](SC)[C@H](O)[C@@H](O)[C@H]2O)[C@H](C)Cl)N(C)C1 [CLINDAMYCIN] — higher, 19.5%
- O=P(O)(O)C(Cl)(Cl)P(=O)(O)O [CLODRONIC ACID] — higher, 5.6%
- Clc1ccccc1C(c1ccccc1)(c1ccccc1)n1ccnc1 [CLOTRIMAZOLE] — higher, 69.3%
- CN1CCN(C2=Nc3cc(Cl)ccc3Nc3ccccc32)CC1 [CLOZAPINE] — higher, 47.5%
- COc1ccc2c3c1O[C@H]1[C@@H](O)C=C[C@H]4[C@@H](C2)N(C)CC[C@@]341 [CODEINE] — higher, 39.1%
- COc1cc2c(c(OC)c1OC)-c1ccc(OC)c(=O)cc1[C@@H](NC(C)=O)CC2 [COLCHICINE] — higher, 31.9%
- C[C@]12C[C@H](O)[C@H]3[C@@H](CCC4=CC(=O)CC[C@@]43C)[C@@H]1CC[C@@H]2C(=O)CO [CORTICOSTERONE] — higher, 33.5%
- CN1CC(=O)NC1=N [CREATININE] — higher, 13.3%
- CC(=O)[C@@]1(O)CC[C@H]2[C@@H]3C=C(Cl)C4=CC(=O)[C@@H]5C[C@@H]5[C@]4(C)[C@H]3CC[C@@]21C [CYPROTERONE] — higher, 61.6%
- NCCS [CYSTEAMINE] — higher, 2.4%
- CN1C(=O)CN=C(c2ccccc2)c2cc(Cl)ccc21 [DIAZEPAM] — higher, 5%
- O=C(O)Cc1ccccc1Nc1c(Cl)cccc1Cl [DICLOFENAC] — lower, -3.7%
- COc1cc2nc(N3CCN(C(=O)C4COc5ccccc5O4)CC3)nc(N)c2cc1OC (stereo unspecified) [DOXAZOSIN] — higher, 85.6%
- C[C@H]1c2cccc(O)c2C(=O)C2=C(O)[C@]3(O)C(=O)C(C(N)=O)=C(O)[C@@H](N(C)C)[C@@H]3[C@@H](O)[C@@H]21 [DOXYCYCLINE] — higher, 27.4%
- O=C1Nc2ccc(Cl)cc2[C@@](C#CC2CC2)(C(F)(F)F)O1 [EFAVIRENZ] — higher, 37%
- NCCCC(N)(C(=O)O)C(F)F (stereo unspecified) [EFLORNITHINE] — higher, 5.5%
- CN1C[C@H](C(=O)N[C@]2(C)O[C@@]3(O)[C@@H]4CCCN4C(=O)[C@H](Cc4ccccc4)N3C2=O)C=C2c3cccc4[nH]cc(c34)C[C@H]21 [ERGOTAMINE] — higher, 16.7%

same assay, conditions: hek293

Point of comparison: `CNC[C@H](O)c1ccc(O)c(O)c1` [EPINEPHRINE], inhibition at 100 µM 29.1%. Against it:
- Cn1cnc([N+](=O)[O-])c1Sc1ncnc2nc[nH]c12 [AZATHIOPRINE] — lower, 4.2%
- C[N+](C)(C)CCO [CHOLINE] — lower, 21.3%
- CN/C(=N/CCSCc1nc[nH]c1C)NC#N [CIMETIDINE] — lower, 8.1%
- O=P1(N(CCCl)CCCl)NCCCO1 (stereo unspecified) [CYCLOPHOSPHAMIDE ANHYDROUS] — lower, 4.7%
- CC(C)N(CCC(C(N)=O)(c1ccccc1)c1ccccn1)C(C)C (stereo unspecified) [DISOPYRAMIDE] — higher, 68.8%
- NCCc1ccc(O)c(O)c1 [DOPAMINE] — lower, 11.8%
